Data: patent publication US7091351B2, “Vanadium compounds for treating cancer” (Parker Hughes Institute, priority 1998, dated 2006)

Tests used:
Type in all cases: cell-based, human
NALM-6 cells [1] = test: In situ detection of apoptosis, confocal microscopy, NALM-6; conditions: 48 hours after treatment
Protocol: (§1) Exponentially growing cells were seeded in 6-well tissue culture plates and incubated with fresh medium containing compounds. […] The cells were fixed in 2% paraformaldehyde, washed with PBS and pelleted by centrifuging the tubes at 1000 rpm for 5 min. Cells pellets were resuspended in 50 μl of PBS, transferred to superforst plus slides and allowed to attach for 15 min. The cells were permeabilized with 0.1% triton X-100 in 0.1% citrate buffer and incubated for 1 hr at 37° C. with the reaction mixture containing terminal deoxynucleotidyl transferase (TdT) and fluorescein isothiocyanate (FITC)-conjugated dUTP. Cells were washed with PBS to remove unbound reagents and the coverslips were mounted onto slides with Vectashield containing propidium iodide (Vector Labs, Burlingame, Calif.) and slides were viewed with a confocal laser scanning microscope. […] In control reactions, the TdT enzyme was omitted from the reaction mixture.

[2] = tested on: 833-K testicular cancer cells; test: Cytotoxic activity of oxovanadium(IV) compounds, 833-K; conditions: read-out: Cytotoxic Activity 833-K
Protocol: (§2) The cytotoxicity of oxovanadium (W) complexes listed in Table 6 were tested against 9 different human cancer cell lines was performed using the MTT (3-[4,5-dimethylthiazol-2-yl]-2,5-diphenyl tetrazolium bromide) assay (Boehringer Mannheim Corp., Indianapolis, Ind.) as described previously (20). Briefly, exponentially growing tumor cells were seeded into a 96-well plate at a density of 4×10^4cells/well and incubated with medium containing the oxovanadium(IV) compounds concentrations ranging from 0.1 to 250 μM for 48 hours at 37° C. in a humidified 5% CO2 atmosphere. Triplicate wells were used for each treatment. To each well, 10 μl of MTT (0.5 mg/ml final concentration) was added and the plates were incubated at 37° C. for 4 hours to allow MTT to form formazan crystals by reacting with metabolically active cells . The formazan crystals were solubilized overnight at 37° C. in a solution containing 10% SDS in 0.01 M HCl. The absorbence of each well was measured in a microplate reader (Labsystems) at 540 nm and a reference wavelength of 690 nm. To translate the OD540 values into the number of live cells in each well, the OD540 values were compared to those on standard OD540—versus—cell number curves generated for each cell line. The percent survival was calculated using the formula: % survival=Live cell number[test]/Live cell number [control]×100. The IC50 values were calculated by non-linear regression analysis using an Graphpad Prism software version 2.0 (Graphpad Software, Inc., San Diego, Calif.).

[3] = tested on: HS445 Hodgkin's lymphoma cells; test: MTT cytotoxicity assay of oxovanadium(IV) compounds, HS445; conditions: 48 hr
Protocol: as §2

[4] = tested on: NTD1 testicular cancer cells; test: Cytotoxic activity of oxovanadium(IV) compounds, NTD1; conditions: read-out: Cytotoxic Activity NTD1
Protocol: as §2

NALM-6 cells [5] = test: MTT cytotoxicity assay of oxovanadium(IV) compounds, NALM-6; conditions: 48 hr
Protocol: as §2

[6] = tested on: HS-SULTAN multiple myeloma cells; test: MTT cytotoxicity assay of oxovanadium(IV) compounds, HS-SULTAN; conditions: 48 hr
Protocol: as §2

NALM-6 cells [7] = test: Mitochondrial mass determination, NAO staining; conditions: 0.1-1 μM, 24-96 hr
Protocol: Relative mitochondrial mass was measured by using Becton Dickinson Calibur flow cytometry and the fluorescent stain 10-n-nonyl-acridine orange (NAO), which binds the mitochondrial phospholipid cardiolipin, that has been extensively used to provide an index of mitochondrial mass (28). 1×10^6 compound 29-treated NALM-6 cells at concentrations of 0.1 μM to 1 μM for 24 hr, 48 hr, 72 hr, or 96 hr were incubated with 30 μM of NAO in complete medium for 10 min at room temp in the dark, washed with ice-cold PBS and analyzed using log scale photomultiplier to detect the green fluorescence at 527 nm. Relative change in the mitochondrial mass was measured using the mean fluorescence value of mitochondria of compound 29-treated and vehicle-treated cells.

HS-SULTAN cells = test: In situ detection of apoptosis, confocal microscopy, HS-SULTAN; conditions: 48 hours after treatment
Protocol: as §1

BT20 breast cancer cells = test: Cytotoxic activity of oxovanadium(IV) compounds, BT20; conditions: read-out: Cytotoxic Activity BT20
Protocol: as §2

U373 glioblastoma cells = test: Cytotoxic activity of oxovanadium(IV) compounds, U373; conditions: read-out: Cytotoxic Activity U373
Protocol: as §2

[8] = tested on: ARH77 multiple myeloma cells; test: MTT cytotoxicity assay of oxovanadium(IV) compounds, ARH77; conditions: 48 hr
Protocol: as §2, with “Briefly, exponentially growing tumor cells were seeded into a 96-well plate at a density of 4×10^4cells/well and incubated with medium containing the oxovanadium(IV) compounds concentrations ranging from 0.1 to 250 μM for 48 hours at 37° C. in a humidified 5% CO2 atmosphere.” left out

[9] = tested on: 64cp5 testicular cancer cells; test: Cytotoxic activity of oxovanadium(IV) compounds, 64cp5; conditions: read-out: Cytotoxic Activity 64cp5
Protocol: as §2

[10] = tested on: PC3 prostate cancer cells; test: Cytotoxic activity of oxovanadium(IV) compounds, PC3; conditions: read-out: Cytotoxic Activity PC3
Protocol: as §2

With “bis(4,7-dimethyl-1,10-phenanthroline)sulfatooxovanadium(IV) [Compound 29]” the “apoptotic nuclei (FITC-dUTP / propidium iodide), NALM-6” value (NALM-6 cells [1]) was “many apoptotic yellow nuclei”, the IC50 [2] was 850 nM and the IC50 [3] was 500 ± 80 nM. The IC50 [4] was 10800 nM, the IC50 (NALM-6 cells [5]) was 200 ± 30 nM and the IC50 [6] was 800 ± 50 nM. For the same substance, the “mitochondrial mass (NAO staining intensity, treated versus untreated)” value (NALM-6 cells [7]) was “virtually identical staining intensity of NAO”, the “apoptotic nuclei (FITC-dUTP / propidium iodide), HS-SULTAN” value (HS-SULTAN cells) was “many apoptotic yellow nuclei” and the IC50 (BT20 breast cancer cells) was 1500 nM. The IC50 (U373 glioblastoma cells) was 1800 nM, the IC50 [8] was 810 ± 900 nM and the IC50 [9] was 750 nM. For the same substance, the IC50 [10] was 1700 nM.
